{"source": "patent US20250268873A1", "about": "“COMBINATION OF DUAL ATM AND DNA-PK INHIBITORS AND IMMUNOTHERAPEUTIC AGENTS FOR USE IN CANCER THERAPY” (XRAD THERAPEUTICS, INC., priority 2021, published 2025)", "test_system": "MC38 tumors", "experiment": "MC38 syngeneic murine tumor model", "assay_type": "in vivo", "conditions": "for Day 20 regression: p<0.05", "protocol": "The murine colon adenocarcinoma cell line, MC38-NCI.TD1 (MC38), was cultured in Dulbecco's modified Eagle's medium (DMEM), 10% fetal bovine serum (FBS), 25 μg/ml gentamicin, 2 mM L-glutamine, 1% penicillin/streptomycin/L-glutamine at 37° C. in 5% CO2. Cells were dissociated in 0.25% trypsin/2.21 mM ethylenediaminetetraacetic acid in Hank's Balanced Salt Solution and brought to a density of 5×10^6 cells/200 μL in DMEM. Tumors were initiated by injection of the cell suspension subcutaneously in the right axilla of female C57BL/6 mice (Jackson Laboratory). All mice were sorted into 7 study groups (n=10) based on caliper estimation of tumor burden. Mice were distributed to ensure that the mean tumor burden for all groups was within 10% of the overall mean tumor burden for the study population (90 mm^3). Mice were monitored daily for clinical signs and weighed and measured three times weekly. The study endpoint was 30 days post staging or when tumor burden was >2000 mm^3.\nThe vehicle for compound 569 was 0.5% hydroxypropyl methyl cellulose (HPMC) and 0.1% Tween 80 dissolved in deionized water. Vehicle for compound 569 and compound 569 (12 mg/kg) were administered by oral gavage once daily starting the day of staging for two consecutive days (qd×2), in combination with focal radiation. Mice stratified to the radiation therapy groups received 5 Gy per day for two consecutive days (qd×2) 60 minutes following administration of the vehicle or compound 569. The mice were anesthetized with isoflurane during the radiation treatment, which was performed with the Xstrahl Life Sciences Small Animal Radiation Research Platform (Xstrahl, Inc.) Mice were irradiated at an average dose rate of 2.5 Gy/min.\nThe vehicle for isotype control (clone 2A3) anti-mouse PD-1 (anti-mPD-1; Bio X Cell) and anti-mPD-1 (Clone RMP1-14; Bio X Cell) was phosphate buffered saline (PBS). Isotype control anti-mPD-1 (10 mg/kg) and anti-mPD-1 (10 mg/kg) were administered intraperitonealy twice weekly for 2 weeks starting day 2 post staging. Treatment schedules for the various groups of animals are summarized below: • Group 1 mice received vehicle qd×2+10 mg/kg isotype control (q3d×2, 3 days off)×2; start 2 days post stage. • Group 2 mice received 10 mg/kg anti-mPD-1 (q3d×2, 3 days off)×2; start 2 days post stage. • Group 3 mice received focal irradiation 5 Gy qd×2+10 mg/kg isotype control (q3d×2, 3 days off)×2; start 2 days post stage. • Group 4 mice received focal irradiation 5 Gy qd×2+10 mg/kg anti-mPD-1 (q3d×2, 3 days off)×2; start 2 days post stage. • Group 5 mice received 12 mg/kg Compound 569 qd×2 (1 hr prior to focal irradiation)+5 Gy qd×2 • Group 6 mice received 12 mg/kg Compound 569 qd×2+10 mg/kg anti-mPD-1 (q3d×2, 3 days off)×2; start 2 days post stage. • Group 7 mice received 12 mg/kg Compound 569 qd×2 (1 hr prior to focal irradiation)+5 Gy qd×2+10 mg/kg anti-mPD-1 (q3d×2, 3 days off)×2; start 2 days post stage.\n• ΔC and ΔT—Are individual mouse endpoints that are calculated for each mouse as follows:\n[formula] • Where Tt and T0 are the tumor burdens of a treated mouse at time t or at the initiation of dosing, respectively. ΔC reflects similar calculations for the control mice. • Median ΔT/ΔC—Is a group endpoint. It is calculated for each day of treatment as:\n[formula] • The results are presented as a %. When the median ΔT/ΔC is negative (the median treated tumor burden is regressing), the median ΔT/ΔC is not reported and the Median % Regression is reported instead. • % Regression—Is a group endpoint. It indicates the percentage reduction in the Median tumor volume from baseline. It is calculated as: […]\nDay 20 post staging was chosen for ΔT/ΔC since it was the last day all animals were on study prior to euthanasia due to tumor burden. • Complete Regression (CR)—An animal is credited a complete regression if its tumor burden is reduced to an immeasurable volume at any point after the first treatment. […]", "key": {"[1]": {"conditions": "Group 5: compound 569 12 mg/kg qd×2 + radiation 5 Gy qd×2"}, "[2]": {"conditions": "Group 7: compound 569 + radiation + anti-mPD-1"}}, "data": [{"smiles": "CC(C)NCCOc1ncc(-c2cc3c4c(cnc3cc2F)N(C)C(=O)C42CCC2)cc1NS(C)(=O)=O", "note": "[Compound 569, N-(5-(7′-Fluoro-3′-methyl-2′-oxo-2′,3′-dihydrospiro[cyclobutane-1,1′-pyrrolo[2,3-c]quinolin]-8′-yl)-2-(2-(isopropylamino)ethoxy)pyridin-3-yl)methanesulfonamide]", "values": [{"measurement": "incidence of complete regressions (CR)", "setting": "[1]", "result": 50, "unit": "%"}, {"measurement": "incidence of tumor free survivors (TFS)", "setting": "[1]", "result": 30, "unit": "%"}, {"measurement": "Day 20 regression", "setting": "[1]", "result": 22, "unit": "%"}, {"measurement": "Day 20 median ΔT/ΔC", "setting": "Group 6: compound 569 12 mg/kg po qd×2 + anti-mPD-1 10 mg/kg ip, p>0.05", "result": 64, "unit": "%"}, {"measurement": "incidence of death", "setting": "Group 6: compound 569 12 mg/kg qd×2 + anti-mPD-1 10 mg/kg, 1 death, n=10", "result": 10, "unit": "%"}, {"measurement": "Day 20 regression", "setting": "Group 7: compound 569 12 mg/kg qd×2 + radiation 5 Gy qd×2 + anti-mPD-1 10 mg/kg", "result": 99, "unit": "%"}, {"measurement": "incidence of complete regressions (CR)", "setting": "[2]", "result": 90, "unit": "%"}, {"measurement": "incidence of tumor free survivors (TFS)", "setting": "[2]", "result": 90, "unit": "%"}]}]}
